Source: PubChem BioAssay AID1918995 (Molecular Pharmacology Branch, DTP, NCI, 2023)
Values joined by “and” are separate entries in the source; they are usually repeats but may differ in a detail not shown here. Identical values can stand only once. Each block holds one compound with its values, some of them ahead of it.

Tested on: 324938-238-R-J1-PDC complex spheroid growth, % test/control
Assay: Anticancer human tumor 324938-238-R-J1-PDC patient-derived bladder carcinoma cell line growth inhibition [AhR]
Settings: for viability, T/C: stronger effect = lower value
Outline: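 Complex tumor spheroids co-cultured with HUVEC and human MSC stroma; AhR antagonists tested in combination with standard-of-care and investigational agents. Top concentration at or near clinical Cmax (else 10 microM), half-log dilutions; growth expressed as percent test/control.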

[1] = curve of first compound, second compound 0.1 µM
[2] = curve of first compound, second compound 0.316 µM
[3] = curve of first compound, second compound 1 µM
[4] = curve of first compound, second compound 3.16 µM
[5] = curve of first compound, second compound 10 µM
[6] = second compound 0.1 µM, first compound 0.0316 µM
[7] = second compound 0.1 µM, first compound 0.1 µM
[8] = second compound 0.1 µM, first compound 0.316 µM
[9] = second compound 0.1 µM, first compound 1 µM
[10] = second compound 0.1 µM, first compound 3.16 µM
[11] = second compound 0.1 µM, first compound 10 µM
[12] = second compound 0.316 µM, first compound 0.0316 µM
[13] = second compound 0.316 µM, first compound 0.1 µM
[14] = second compound 0.316 µM, first compound 0.316 µM
[15] = second compound 0.316 µM, first compound 1 µM
[16] = second compound 0.316 µM, first compound 3.16 µM
[17] = second compound 0.316 µM, first compound 10 µM
[18] = second compound 1 µM, first compound 0.0316 µM
[19] = second compound 1 µM, first compound 0.1 µM
[20] = second compound 1 µM, first compound 0.316 µM
[21] = second compound 1 µM, first compound 1 µM
[22] = second compound 1 µM, first compound 3.16 µM
[23] = second compound 1 µM, first compound 10 µM
[24] = second compound 3.16 µM, first compound 0.0316 µM
[25] = second compound 3.16 µM, first compound 0.1 µM
[26] = second compound 3.16 µM, first compound 0.316 µM
[27] = second compound 3.16 µM, first compound 1 µM
[28] = second compound 3.16 µM, first compound 3.16 µM
[29] = second compound 3.16 µM, first compound 10 µM
[30] = second compound 10 µM, first compound 0.0316 µM
[31] = second compound 10 µM, first compound 0.1 µM
[32] = second compound 10 µM, first compound 0.316 µM
[33] = second compound 10 µM, first compound 1 µM
[34] = second compound 10 µM, first compound 3.16 µM
[35] = second compound 10 µM, first compound 10 µM
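Note: spheroids exposed to agents for seven days before viability read.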

- IC50 [1]: > 10000 nM
- IC50 [2]: > 10000 nM
- IC50 [3]: > 10000 nM
- IC50 [4]: > 10000 nM
- IC50 [5]: < 31.6 nM
SMILES: CC(C)c1c(-c2ccccc2)nc2c(C#N)c[nH]n2c1=O + Cc1cncc(-c2nc(NCCc3c[nH]c4ccccc34)c3ncn(C(C)C)c3n2)c1
- viability, T/C [6]: 127%
- viability, T/C [7]: 85.5%
- viability, T/C [8]: 95.3%
- viability, T/C [9]: 63.9%
- viability, T/C [10]: 69.6%
- viability, T/C [11]: 146%
- viability, T/C [12]: 124%
- viability, T/C [13]: 129%
- viability, T/C [14]: 89.1%
- viability, T/C [15]: 102%
- viability, T/C [16]: 113%
- viability, T/C [17]: 96.4%
- viability, T/C [18]: 119%
- viability, T/C [19]: 85.3%
- viability, T/C [20]: 83.5%
- viability, T/C [21]: 90.8%
- viability, T/C [22]: 130%
- viability, T/C [23]: 102%
- viability, T/C [24]: 101%
- viability, T/C [25]: 68.8%
- viability, T/C [26]: 76.8%
- viability, T/C [27]: 63.8%
- viability, T/C [28]: 75.8%
- viability, T/C [29]: 102%
- viability, T/C [30]: 2.26%
- viability, T/C [31]: 3.22%
- viability, T/C [32]: 2.43%
- viability, T/C [33]: 3.77%
- viability, T/C [34]: 3.8%
- viability, T/C [35]: 1.68%

- IC50 (curve of compound): 1310 nM and 2200 nM and 3500 nM
SMILES: Nc1ccccc1NC(=O)c1ccc(CNC(=O)OCc2cccnc2)cc1
- viability, T/C (compound 0.0316 µM): 90% and 112% and 121%
- viability, T/C (compound 0.1 µM): 80.4% and 111% and 110%
- viability, T/C (compound 0.316 µM): 57.2% and 107% and 97.9%
- viability, T/C (compound 1 µM): 61.7% and 69% and 70.3%
- viability, T/C (compound 3.16 µM): 37.1% and 43.2% and 58.1%

- IC50 [1]: > 3000 nM
- IC50 [2]: 639 nM
- IC50 [3]: 1100 nM
- IC50 [4]: 740 nM
- IC50 [5]: < 9.49 nM
SMILES: O=C(C=Cn1cnc(-c2cc(C(F)(F)F)cc(C(F)(F)F)c2)n1)NNc1cnccn1 + Cc1cncc(-c2nc(NCCc3c[nH]c4ccccc34)c3ncn(C(C)C)c3n2)c1
- viability, T/C (second compound 0.1 µM, first compound 0.00949 µM): 86.6%
- viability, T/C (second compound 0.1 µM, first compound 0.03 µM): 94.1%
- viability, T/C (second compound 0.1 µM, first compound 0.0949 µM): 66.5%
- viability, T/C (second compound 0.1 µM, first compound 0.3 µM): 56.2%
- viability, T/C (second compound 0.1 µM, first compound 0.949 µM): 53.2%
- viability, T/C (second compound 0.1 µM, first compound 3 µM): 44.3%
- viability, T/C (second compound 0.316 µM, first compound 0.00949 µM): 95.5%
- viability, T/C (second compound 0.316 µM, first compound 0.03 µM): 90.8%
- viability, T/C (second compound 0.316 µM, first compound 0.0949 µM): 110%
- viability, T/C (second compound 0.316 µM, first compound 0.3 µM): 64.9%
- viability, T/C (second compound 0.316 µM, first compound 0.949 µM): 47.1%
- viability, T/C (second compound 0.316 µM, first compound 3 µM): 37.3%
- viability, T/C (second compound 1 µM, first compound 0.00949 µM): 112%
- viability, T/C (second compound 1 µM, first compound 0.03 µM): 94.7%
- viability, T/C (second compound 1 µM, first compound 0.0949 µM): 80.7%
- viability, T/C (second compound 1 µM, first compound 0.3 µM): 79.7%
- viability, T/C (second compound 1 µM, first compound 0.949 µM): 50.4%
- viability, T/C (second compound 1 µM, first compound 3 µM): 31.4%
- viability, T/C (second compound 3.16 µM, first compound 0.00949 µM): 120%
- viability, T/C (second compound 3.16 µM, first compound 0.03 µM): 103%
- viability, T/C (second compound 3.16 µM, first compound 0.0949 µM): 93.1%
- viability, T/C (second compound 3.16 µM, first compound 0.3 µM): 60.6%
- viability, T/C (second compound 3.16 µM, first compound 0.949 µM): 42.3%
- viability, T/C (second compound 3.16 µM, first compound 3 µM): 47.6%
- viability, T/C (second compound 10 µM, first compound 0.00949 µM): 16.9%
- viability, T/C (second compound 10 µM, first compound 0.03 µM): 7.37%
- viability, T/C (second compound 10 µM, first compound 0.0949 µM): 15%
- viability, T/C (second compound 10 µM, first compound 0.3 µM): 20.5%
- viability, T/C (second compound 10 µM, first compound 0.949 µM): 22.1%
- viability, T/C (second compound 10 µM, first compound 3 µM): 25.8%

- IC50 [1]: > 10000 nM
- IC50 [2]: > 10000 nM
- IC50 [3]: > 10000 nM
- IC50 [4]: > 10000 nM
- IC50 [5]: > 10000 nM
SMILES: CC(C)c1c(-c2ccccc2)nc2c(C#N)c[nH]n2c1=O + Cc1ccccc1N=Nc1ccc(NC(=O)c2ccnn2C)c(C)c1
- viability, T/C [6]: 101%
- viability, T/C [7]: 91.3%
- viability, T/C [8]: 95.5%
- viability, T/C [9]: 83.9%
- viability, T/C [10]: 92.1%
- viability, T/C [11]: 73.9%
- viability, T/C [12]: 87.3%
- viability, T/C [13]: 92.9%
- viability, T/C [14]: 90.7%
- viability, T/C [15]: 81.6%
- viability, T/C [16]: 75.3%
- viability, T/C [17]: 68%
- viability, T/C [18]: 80.1%
- viability, T/C [19]: 91.8%
- viability, T/C [20]: 76%
- viability, T/C [21]: 80.5%
- viability, T/C [22]: 68.3%
- viability, T/C [23]: 65.8%
- viability, T/C [24]: 80.1%
- viability, T/C [25]: 81.4%
- viability, T/C [26]: 64.9%
- viability, T/C [27]: 67.5%
- viability, T/C [28]: 65.7%
- viability, T/C [29]: 56%
- viability, T/C [30]: 70.8%
- viability, T/C [31]: 75.2%
- viability, T/C [32]: 79.4%
- viability, T/C [33]: 65.1%
- viability, T/C [34]: 54.4%
- viability, T/C [35]: 61%
